Each structure is given as a SMILES string.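 Five concentrations, 48 hours, 96-well plates. GI50 is the concentration that inhibits growth by half.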 The source made the active and inactive calls. No stated cut-off is given here; in the data, active = GI50 up to about 1.1 µM and inactive = higher. Some results are limits rather than exact numbers.

Some test systems named below: MCF7; SK-OV-3; MDA-MB-435; NCI/ADR-RES; SF-539; SNB-19; HCT-116; HOP-62; UACC-62; OVCAR-5; HT-29; NCI-H460; SK-MEL-5; OVCAR-8; K562; Hs-578T; SN12C; SW-620; HCT-15; PC-3.
Assay in all cases: NCI-60 cell line screen, 48 h

With `Fc1ccc(C2(CCCN3CCc4[nH]c5cc(F)ccc5c4C3)OCCO2)cc1`, the GI50 is 10.6 µM (inactive) with MCF7; 13.8 µM (inactive) in the assay on SK-OV-3; 13.5 µM (inactive) with MDA-MB-435; 20.7 µM (inactive) in the assay on NCI/ADR-RES; 12 µM (inactive) with SF-539; 11.1 µM (inactive) with SNB-19. Moreover, the GI50 was 11.5 µM (inactive) in the assay on HCT-116; 13 µM (inactive) in the assay with HOP-62; 13.7 µM (inactive) with UACC-62; 2.89 µM (inactive) with OVCAR-5; 3.81 µM (inactive) with HT-29; 10.4 µM (inactive) in the assay on NCI-H460. Also, the GI50 is 10.9 µM (inactive) in the assay on SK-MEL-5; 17.7 µM (inactive) with OVCAR-8; 4.18 µM (inactive) in the assay on K562; 3.92 µM (inactive) in the assay on Hs-578T; 16.7 µM (inactive) with SN12C; 14.3 µM (inactive) in the assay on SW-620. For the same compound, the GI50 in the assay with HCT-15 is 16.4 µM.

As for `CC(=O)NC1C(OCc2ccccc2)OC(CO)C(O)C1OCC(=O)NC(C)C(=O)NC(CCC(=O)OCCNC(=O)c1cccc2cc3ccccc3nc12)C(N)=O` (stereo unspecified), the GI50 with MCF7 was 25.2 µM (inactive); in the assay on SK-OV-3, 21.6 µM (inactive); in the assay with MDA-MB-435, 17.2 µM (inactive); with NCI/ADR-RES it was 21.6 µM (inactive); in the assay with PC-3 it was 27.4 µM (inactive); with SNB-19, 31.4 µM (inactive). The GI50 in the assay with HCT-116 is 10.4 µM (inactive); with HOP-62, 24.3 µM (inactive); in the assay with UACC-62 it was 15.7 µM (inactive); in the assay with OVCAR-5, 22.1 µM (inactive); in the assay with HT-29, 13 µM (inactive); with NCI-H460, 8.95 µM (inactive). Further, the GI50 in the assay with SK-MEL-5 is 17 µM (inactive); with OVCAR-8, 18 µM (inactive); in the assay on K562, 39.1 µM (inactive); in the assay with SN12C, 22.3 µM (inactive); with SW-620 it was 25.2 µM (inactive); with HCT-15 it was 13.9 µM.

Take `O=C(O)C(=O)Cc1ccc2c(c1)OCO2`: the GI50 in the assay on MCF7, in the assay with SK-OV-3, in the assay with MDA-MB-435, with NCI/ADR-RES, in the assay with SF-539 and with PC-3 was > 100 µM (inactive) in each case. Moreover, the GI50 with SNB-19, in the assay with HCT-116, in the assay on HOP-62, in the assay with UACC-62, with OVCAR-5 and with HT-29 was > 100 µM (inactive) throughout. Further, the GI50 in the assay with NCI-H460, in the assay with SK-MEL-5, in the assay on OVCAR-8, in the assay on K562, in the assay on SN12C and in the assay with SW-620 was > 100 µM (inactive) throughout. In the assay with HCT-15, the GI50 was > 100 µM.

Turning to `CCCCCCCC/C=C/CCCCCCCC1CC(O)C(=O)O1` (stereo unspecified), the GI50 is 32.4 µM (inactive) in the assay on MCF7; 79.8 µM (inactive) in the assay on SK-OV-3; 38.9 µM (inactive) in the assay with MDA-MB-435; 54.1 µM (inactive) in the assay with NCI/ADR-RES; 46.3 µM (inactive) with PC-3; 65.2 µM (inactive) in the assay with SNB-19. For the same compound, the GI50 was 41.1 µM (inactive) in the assay on HCT-116; 41.4 µM (inactive) with HOP-62; 63.2 µM (inactive) with UACC-62; > 100 µM (inactive) in the assay on OVCAR-5; 33.4 µM (inactive) in the assay with HT-29; 25.1 µM (inactive) in the assay on NCI-H460. For the same compound, the GI50 in the assay on SK-MEL-5 was 46.1 µM (inactive); in the assay with OVCAR-8 it was 55.1 µM (inactive); with K562, 42 µM (inactive); in the assay with SN12C it was > 10 µM (inactive); with SW-620, 55.5 µM (inactive); with HCT-15, 43.1 µM.

For `O=c1c2c(sc3ccccc13)NCN(CCc1ccccc1)C2`, the GI50 in the assay on MCF7 was 56.6 µM (inactive); in the assay with SK-OV-3, 66.5 µM (inactive); with MDA-MB-435 it was 35.1 µM (inactive); in the assay with NCI/ADR-RES it was 20.7 µM (inactive); with SF-539 it was 55.3 µM (inactive); with PC-3, 39.3 µM (inactive). Further, the GI50 in the assay on SNB-19 is 30.8 µM (inactive); in the assay on HCT-116, 23.4 µM (inactive); in the assay on HOP-62, 34.6 µM (inactive); with UACC-62 it was 34.2 µM (inactive); in the assay on OVCAR-5, 81.5 µM (inactive); in the assay on HT-29 it was 18.4 µM (inactive). In addition, the GI50 is 32.7 µM (inactive) with NCI-H460; 14.8 µM (inactive) in the assay on SK-MEL-5; 28.7 µM (inactive) with OVCAR-8; 19.7 µM (inactive) in the assay on K562; 41.8 µM (inactive) in the assay on SN12C; 31.8 µM (inactive) in the assay with SW-620.

`CC1(C)OCC(COC(=O)C=[N+]=[N-])O1` (stereo unspecified): the GI50 in the assay on MCF7 is 46.5 µM (inactive); in the assay with SK-OV-3, > 100 µM (inactive); with MDA-MB-435, > 100 µM (inactive); in the assay with PC-3, > 100 µM (inactive); in the assay on SNB-19, > 100 µM (inactive); in the assay on HCT-116 it was > 100 µM (inactive). Further, the GI50 was 79.8 µM (inactive) with HOP-62; > 100 µM (inactive) with UACC-62; > 100 µM (inactive) in the assay with OVCAR-5; > 100 µM (inactive) with HT-29; 13.2 µM (inactive) with NCI-H460; > 100 µM (inactive) with SK-MEL-5. Further, the GI50 with K562 is > 10 µM (inactive); with SN12C it was > 100 µM (inactive); in the assay on SW-620, > 100 µM (inactive); in the assay on HCT-15, > 100 µM.

Turning to `O=C(O)c1nc2ccc(C(F)(F)F)cc2nc1NCc1ccc(F)cc1`, the GI50 was 22.9 µM (inactive) in the assay on MCF7; 31.7 µM (inactive) with SK-OV-3; > 100 µM (inactive) with MDA-MB-435; 35.5 µM (inactive) in the assay on NCI/ADR-RES; 20.1 µM (inactive) with SF-539; 26.5 µM (inactive) in the assay with PC-3. The GI50 in the assay with SNB-19 was 24.5 µM (inactive); in the assay with HCT-116, 15.9 µM (inactive); in the assay on HOP-62, 19.1 µM (inactive); in the assay on UACC-62, 15.9 µM (inactive); in the assay with OVCAR-5 it was 22.4 µM (inactive); with NCI-H460, 19.4 µM (inactive). The GI50 was 16.9 µM (inactive) with SK-MEL-5; 21.5 µM (inactive) in the assay with OVCAR-8; 19.6 µM (inactive) in the assay with K562; 17.5 µM (inactive) in the assay on SN12C; 33 µM (inactive) in the assay with SW-620; 21.2 µM in the assay on HCT-15.

For `CCOC(=O)COc1ccc(OCC(=O)OCC)c2c1C(=O)CCCC2=O`, the GI50 with SK-OV-3, with SF-539, with SNB-19, with HCT-116, in the assay on HOP-62 and in the assay with UACC-62 was > 100 µM (inactive) each time. Besides, the GI50 in the assay on OVCAR-5 is > 100 µM (inactive); with HT-29 it was > 100 µM (inactive); in the assay on NCI-H460, > 100 µM (inactive); in the assay on SK-MEL-5, 0.26 µM (active); in the assay with OVCAR-8 it was > 100 µM (inactive); in the assay on K562 it was > 100 µM (inactive). In addition, the GI50 in the assay with SN12C is > 100 µM (inactive); in the assay on SW-620, > 100 µM (inactive); in the assay on HCT-15, > 100 µM.
